Here are results for four molecules from PMC9147958, “Formulation and Evaluation of SNEDDS Loaded with Original Lipophenol for the Oral Route to Prevent Dry AMD and Stragardt’s Disease” (Pharmaceutics, 2022).

In brackets after ≈: the same amount, converted by molar mass. Where two headings read alike, the source gives them in different places.

Series [1] deals with rats. Particulars: 25 mg/kg/day oral with corn oil, 30 days, 1.5 h/day (1500 Lux); cited from earlier work.
The subject of series [2] is ddY mice. Particulars: cited from earlier work.
Details of series [3]: method as in PMID 27151507. Particulars: administered dose of 25 mg/kg; cited from earlier work.
Series [4] deals with ABCA4KO mice. Put plainly: Acute light-induced retinal degeneration, histological analysis. It is filed as in vivo. Particulars: 100 mg/kg oral, acute white light; dark-adapted mice 2.2. The protocol: (§1) Mice between 8 and 16 weeks of age (both sexes), were weighed to adjust the quantity of administered compound for a dosage at 100, 50, or 17 mg/kg. Mice were orally fed with a 22-gauge needle containing SNEDDS or soybean oil as a control vehicle, IP-DHA solubilized in soybean oil (20 mg/mL), and SNEDDS-IP-DHA (30 mg/mL).
(§2) After the mice were dark-adapted (DA) for 24 h, their pupils were dilated with 0.5% tropicamide. The mice were force-fed in the dark 1 h before light exposure. Mice were exposed to constant light (two cool white fluorescent lamps, OSRAM of 26 watts, 1800 lm, a maximum photopic efficiency of ~470 nm, light intensity averaged to 24 mW/cm^2, corresponding to ≈20.000 Lux) for 1.50 h in a white plastic bucket with a fan. Mice were kept in the dark for 5 days before we performed the final retinal evaluations. Throughout the experiment, the ambient temperature was 22 °C, which was identical to that of the breeding box, to avoid an increase in body temperature, which could further damage the retina.
All animals were killed via cervical dislocation. The eyes were rapidly enucleated and fixed in 4% paraformaldehyde for 24 h at 4 °C. Eyecups were embedded in paraffin and cut into 5 μm sagittal sections. […] The thickness of the inner nuclear layer (INL) and the outer nuclear layer (ONL) was measured and expressed in arbitrary units using ImageJ software. […]

In series [5] the test system is ABCA4KO (−/−) mouse model. Also on record: method as in PMID 32641711. The conditions noted are these: intravenous route, cited from earlier work.
A short description of series [6]: IP-DHA stability and solubility in gastric- and intestinal-simulated fluids. The series is classed as in vitro ADME. On the set-up: half-life: dose or concentration left out as unconfirmed. The procedure:
The chemical stability of free IP-DHA and IP-DHA loaded in SNEDDS at 30 mg/mL was evaluated in a gastric and an intestinal environment (Table 1). A total of 150 µL of free IP-DHA (solubilized in MeOH) or SNEDDS-IP-DHA loaded at 30 mg/mL were placed in 20 mL of freshly prepared SGF or ISF under magnetic stirring at 150 rpm in a water bath at 37 °C. Samples were collected at 0, 30, 60, and 90 min for the stability analysis in SGF, or 0, 20, 40, 60, 80, 100, and 120 min for the stability analysis in ISF. A total of 500 µL of the medium was recovered and diluted with 500 µL of MeOH to stop the enzymatic degradation reaction. The samples were centrifuged (Sigma centrifuge 2K15) for 10 min at 15,000 rpm. The supernatant was removed and IP-DHA was quantified as described in Section 2.3.5.

The nature of series [7]: Log P of IP-DHA. The series is classed as physicochemical.
Series [8] is described as follows: Solubility of IP-DHA in SNEDDS excipients. The series is classed as physicochemical.
The test system of series [9] is ABCA4KO mice. The series is described as follows: Acute light-induced retinal degeneration, electroretinography. The series is classed as in vivo. Particulars: 100 mg/kg oral, 60 min before 20,000 Lux white light for 90 min, ERG 5 days later. The procedure: as §1, §2
All electrophysiological examinations were conducted using the Visiosystem (SIEM, France). Animals were prepared and anesthetized, and electroretinogram recording (binocular full-field ERG) was performed with cotton electrodes, as previously described.

The nature of series [10]: Caco-2 permeability. The series is classed as in vitro ADME. The conditions noted are these: human, Caco-2, pH 6.5/7.4, 10 μM. The procedure: Caco-2 cells are human intestinal epithelial cells that are derived from a colorectal adenocarcinoma. Cells were seeded at 1 × 10^5 cells/cm^2 in 96-well Multiscreen^TM plates (Millipore). This assay was performed in either the apical-to-basolateral (A–B) or B–A direction. IP-DHA was prepared at 10 μM in HBSS-MES (pH 6.5) or HBSS-HEPES (pH 7.4), with a final DMSO concentration of 1%. The working solution was then centrifuged, and the supernatant was added to the donor side. The assay plate was incubated at 37 °C with gentle shaking for 60 min or 40 min for the A–B or B–A assays, respectively. Samples were aliquoted from the donor side at time zero and from the end point, and from the receiver side at the end point. Samples were analyzed via HPLC-MS/MS, as described in Section 2.2.3.
The apparent permeability coefficient (Papp) in cm/s of IP-DHA was calculated as follows: Papp=VR×CRend/Δt×1/A×CDmind−CRmind where VR is the volume of the receiver chamber. CR(end) is the concentration of IP-DHA in the receiver chamber at the end time point, Δt is the incubation time, A is the surface area of the cell monolayer, and CD(mid) is the calculated mid-point concentration of the test compound on the donor side, which is the mean value of the donor concentration at time 0 min and the donor concentration at the end time point. […]
(Caco-2 monolayers are a common model of the intestinal barrier.)

A short description of series [11]: Stability on human microsomes. The series is classed as in vitro ADME. On the set-up: dose or concentration left out as unconfirmed. The conditions noted are these: pooled liver microsomes, pH 7.4, 37 °C, NADPH-generating system, read-out: Stability on human microsomes T1/2. The procedure:
The metabolic stability of IP-DHA on human microsomes (microsomes S9, cryopreserved hepatocytes, recombinant CYP, and recombinant UGT) has been evaluated and expressed as percentage of IP-DHA remaining. IP-DHA was pre-incubated with pooled liver microsomes in phosphate buffer (pH 7.4) at 10 mM for 5 min in a 37 °C shaking water bath (IKA® RH basic KT/C). The reaction was initiated using the NADPH-generating system and incubated for 0, 15, 30, 45, and 60 min. The reaction was stopped by transferring the incubation mixture to acetonitrile/methanol (1:3 v/v ratio). Samples were then mixed and centrifuged at 3000 rpm (Sigma centrifuge 2K15) for 20 min to precipitate the protein, and supernatants were collected. IP-DHA concentration was determined using µHPLC-MS/MS analysis, as described in Section 2.2.3. The half-life (T1/2) was estimated from the slope of the initial linear range of the logarithmic curve of the compound remaining (%) vs. time, assuming first-order kinetics.
For orientation: Liver microsomes are vesicles of endoplasmic reticulum, rich in cytochrome P450 enzymes.

Series [12] in a line: Solubility of IP-DHA in PBS, SGF and ISF without enzymes. The series is classed as physicochemical. The conditions noted are these: for solubility: thermodynamic from solid, n = 3. The protocol:
Solubility was evaluated in PBS (pH 7.4), SGF, and ISF (Table 1) without enzymes (pepsin and pancreatin). An excess of IP-DHA was added for each medium type, followed by mixing using a vortex mixer (Vortex Génie 2) and equilibration at room temperature. Next, the mixtures were centrifuged at 3000 rpm (Sigma centrifuge 2K15) for 15 min. The supernatant from each sample was diluted with methanol. The concentration of IP-DHA in each sample was determined using the µHPLC/MS-MS analysis, as described in Section 2.2.3.

For series [13], the system named is retinal cells. Also on record: method as in PMID 27072643. The conditions noted are these: in vitro; cited from earlier work.

With `CC1=C[C@H](O)CC(C)(C)[C@H]1/C=C/C(C)=C/C=C/C(C)=C/C=C/C=C(C)/C=C/C=C(C)/C=C/C1=C(C)C[C@@H](O)CC1(C)C` [lutein], the Photoreceptor protection result in [1] is given as “demonstrated its efficacy for protecting photoreceptors”.
For the molecule `CC1=C(/C=C/C(C)=C/C=C/C(C)=C/C=C/C=C(C)/C=C/C=C(C)/C=C/C2=C(C)C(=O)[C@@H](O)CC2(C)C)C(C)(C)C[C@H](O)C1=O` [Astaxantin], in series [2] (dissolved in olive oil, 100 mg/kg oral, white light 3 h at 8000 Lux), the Photoreceptor protection entry is given as “partially preserve photoreceptors”.
With `CC(=O)N1CCN(c2ccc(N)c(-n3ccnc3)c2)CC1` [NSP-116], the Photoreceptor protection entry in series [2] (suspended in water with 0.5% CMC, 30 mg/kg oral 30 min before white light 8000 Lux for 3 h) is given as “effective in protecting photoreceptors”. Moreover, in series [3], the Cmax in plasma is given as 7 µg/mL.
The term logP denotes the decadic logarithm of the partition coefficient of the neutral form, usually between octanol and water. In general, solubility refers to the dissolved amount per volume that the medium holds. Usually Papp B→A stands for how fast a substance crosses the layer from the basolateral side. For orientation: Papp A→B means the apparent permeability from the apical to the basolateral side of a cell layer. Regarding `CC/C=C\C/C=C\C/C=C\C/C=C\C/C=C\C/C=C\CCC(=O)Oc1cc(O)cc(OC(C)C)c1` [IP-DHA, phloroglucinol-isopropyl-DHA], the “INL/ONL ratio of thickness” value in series [4] is 0.7. In addition, in series [5] (IP-DHA associated with BSA at 30 mg/kg), the Protection of photoreceptors is recorded as 80–85%. Moreover, in series [5], the “Effect on the retinoid visual cycle” value is “did not affect the retinoid visual cycle”. Besides, the half-life in [6] (ISF with pancreatin and bile salts, pH 7.4, 37 °C, read-out: T1/2 of IP-DHA in intestinal environment (ISF)) was 11 min; in [11], 10 min. In addition, the “Stability of IP-DHA in gastric medium (SGF)” value in [6] (SGF with pepsin, pH 1.5, 37 °C, up to 90 min) is given as “remained stable”. Moreover, the logP in series [7] is more than 5. The solubility was 46 ± 2.15 mg/mL (≈ 96.1 mM) in series [8] (Labrasol, surfactant, read-out: Solubility of IP-DHA in Labrasol); 25.5 ± 3.27 mg/mL (≈ 53.2 mM) in series [8] (Phosal 53 MCT, oil or lipid, oil phase, read-out: Solubility of IP-DHA in Phosal 53 MCT); 45 ± 2.16 mg/mL (≈ 94.1 mM) in series [8] (Transcutol HP, organic solvent or mixture, co-surfactant, read-out: Solubility of IP-DHA in Transcutol HP); 0.0115 ± 0.00153 mg/mL (≈ 0.0241 mM) in series [12] (PBS, pH 7.4, aqueous buffer, room temperature, read-out: Solubility in PBS, pH 7.4); 0.00739 ± 0.00026 mg/mL (≈ 0.0154 mM) in series [12] (pH 1.5, simulated gastric fluid, free IP-DHA, SGF without pepsin, read-out: Solubility in SGF); 0.0102 ± 0.00012 mg/mL (≈ 0.0213 mM) in series [12] (pH 7.4, fassgf or other biorelevant, free IP-DHA, ISF without pancreatin, read-out: Solubility in ISF). Besides, the “a-wave, % of photoreceptor activity remaining vs dark-adapted mice” value in series [9] was 42%. Besides, in series [9], the “b-wave, % of photoreceptor activity remaining vs dark-adapted mice” value was determined as 39%. Further, the Papp B→A at 40 min, 10 μM in series [10] (40 min) amounted to 7 ± 0.5 nm/s. In [10] (60 min), the Papp A→B at 60 min, 10 μM was found to be 10 ± 1.4 nm/s. In addition, in series [12] (from poor solubility and poor Caco-2 permeability), the BCS classification entry is given as “BCS Class IV”. For the same molecule, in series [13], the “Toxicity on retinal cells” value is reported as “absence of the toxicity”.
